{"source": "PubChem BioAssay (NCI)", "experiment_in_all_cases": "NCI tumour cell line growth inhibition, 48 h", "key": {"TK-10 renal": {"system": "TK-10 renal"}, "HL-60(TB) leukemia": {"system": "HL-60(TB) leukemia"}, "OVCAR-3 ovarian": {"system": "OVCAR-3 ovarian"}, "M19-MEL melanoma": {"system": "M19-MEL melanoma"}, "UACC-257 melanoma": {"system": "UACC-257 melanoma"}, "EKVX NSCLC": {"system": "EKVX NSCLC"}, "KM20L2 colon": {"system": "KM20L2 colon"}, "DMS 114 small cell lung": {"system": "DMS 114 small cell lung"}, "SK-MEL-5 melanoma": {"system": "SK-MEL-5 melanoma"}, "NCI-H460 lung": {"system": "NCI-H460 lung"}, "CCRF-CEM leukemia": {"system": "CCRF-CEM leukemia"}, "SR leukemia": {"system": "SR leukemia"}, "NCI-H226 lung": {"system": "NCI-H226 lung"}, "HCT-116 colon": {"system": "HCT-116 colon"}, "UACC-62 melanoma": {"system": "UACC-62 melanoma"}, "OVCAR-4 ovarian": {"system": "OVCAR-4 ovarian"}, "OVCAR-5 ovarian": {"system": "OVCAR-5 ovarian"}, "ACHN renal": {"system": "ACHN renal"}, "HT29 colon": {"system": "HT29 colon"}, "MALME-3M melanoma": {"system": "MALME-3M melanoma"}, "HCC-2998 colon": {"system": "HCC-2998 colon"}, "HCT-15 colon": {"system": "HCT-15 colon"}, "SW-620 colon": {"system": "SW-620 colon"}, "SK-MEL-28 melanoma": {"system": "SK-MEL-28 melanoma"}, "DMS 273 small cell lung": {"system": "DMS 273 small cell lung"}, "A549 NSCLC": {"system": "A549 NSCLC"}, "SK-MEL-2 melanoma": {"system": "SK-MEL-2 melanoma"}, "SF-295 CNS": {"system": "SF-295 CNS"}, "786-0 renal": {"system": "786-0 renal"}, "U251 CNS": {"system": "U251 CNS"}, "OVCAR-8 ovarian": {"system": "OVCAR-8 ovarian"}, "HOP-92 NSCLC": {"system": "HOP-92 NSCLC"}, "LOX IMVI melanoma": {"system": "LOX IMVI melanoma"}, "HOP-18 NSCLC": {"system": "HOP-18 NSCLC"}, "SNB-78 CNS": {"system": "SNB-78 CNS"}, "COLO 205 colon": {"system": "COLO 205 colon"}, "SNB-19 CNS": {"system": "SNB-19 CNS"}, "LXFL 529 NSCLC": {"system": "LXFL 529 NSCLC"}, "KM12 colon": {"system": "KM12 colon"}, "HOP-62 NSCLC": {"system": "HOP-62 NSCLC"}, "M14 melanoma": {"system": "M14 melanoma"}, "K-562 leukemia": {"system": "K-562 leukemia"}, "NCI-H23 lung": {"system": "NCI-H23 lung"}, "DLD-1 colon": {"system": "DLD-1 colon"}, "CAKI-1 renal": {"system": "CAKI-1 renal"}, "RXF 393 renal": {"system": "RXF 393 renal"}, "SNB-75 CNS": {"system": "SNB-75 CNS"}, "NCI-H522 lung": {"system": "NCI-H522 lung"}, "SN12C renal": {"system": "SN12C renal"}, "SF-268 CNS": {"system": "SF-268 CNS"}, "RPMI-8226 leukemia": {"system": "RPMI-8226 leukemia"}, "IGROV1 ovarian": {"system": "IGROV1 ovarian"}, "A498 renal": {"system": "A498 renal"}, "MOLT-4 leukemia": {"system": "MOLT-4 leukemia"}, "UO-31 renal": {"system": "UO-31 renal"}, "SF-539 CNS": {"system": "SF-539 CNS"}}, "note": "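Assay format: 96-well plates, 48-hour exposure. TGI is the concentration that stops growth completely.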"}
{"smiles": "COc1ccc(/C=C2\\CCC(CCN(C)C)(C3=CCCC3)C2=O)cc1", "note": "(stereo unspecified)", "values": [{"measurement": "TGI", "setting": "TK-10 renal", "value": 30.7, "unit": "µM"}, {"measurement": "TGI", "setting": "HL-60(TB) leukemia", "value": 36.6, "unit": "µM"}, {"measurement": "TGI", "setting": "OVCAR-3 ovarian", "value": 49.7, "unit": "µM"}, {"measurement": "TGI", "setting": "M19-MEL melanoma", "value": 28.4, "unit": "µM"}, {"measurement": "TGI", "setting": "UACC-257 melanoma", "value": 30.8, "unit": "µM"}, {"measurement": "TGI", "setting": "EKVX NSCLC", "value": 39.9, "unit": "µM"}, {"measurement": "TGI", "setting": "KM20L2 colon", "value": 28.3, "unit": "µM"}, {"measurement": "TGI", "setting": "DMS 114 small cell lung", "value": 31.2, "unit": "µM"}, {"measurement": "TGI", "setting": "SK-MEL-5 melanoma", "value": 30.3, "unit": "µM"}, {"measurement": "TGI", "setting": "NCI-H460 lung", "value": 40.5, "unit": "µM"}, {"measurement": "TGI", "setting": "CCRF-CEM leukemia", "value": 53, "unit": "µM"}, {"measurement": "TGI", "setting": "SR leukemia", "value": 88.5, "unit": "µM"}, {"measurement": "TGI", "setting": "NCI-H226 lung", "value": 38.5, "unit": "µM"}, {"measurement": "TGI", "setting": "HCT-116 colon", "value": 29.1, "unit": "µM"}, {"measurement": "TGI", "setting": "UACC-62 melanoma", "value": 30.3, "unit": "µM"}, {"measurement": "TGI", "setting": "OVCAR-4 ovarian", "value": 44.5, "unit": "µM"}, {"measurement": "TGI", "setting": "OVCAR-5 ovarian", "value": 47.6, "unit": "µM"}, {"measurement": "TGI", "setting": "ACHN renal", "value": 31.2, "unit": "µM"}, {"measurement": "TGI", "setting": "HT29 colon", "value": 32.8, "unit": "µM"}, {"measurement": "TGI", "setting": "MALME-3M melanoma", "value": 32.6, "unit": "µM"}, {"measurement": "TGI", "setting": "HCC-2998 colon", "value": 32.9, "unit": "µM"}, {"measurement": "TGI", "setting": "HCT-15 colon", "value": 51.4, "unit": "µM"}, {"measurement": "TGI", "setting": "SW-620 colon", "value": 31, "unit": "µM"}, {"measurement": "TGI", "setting": "SK-MEL-28 melanoma", "value": 35.1, "unit": "µM"}, {"measurement": "TGI", "setting": "DMS 273 small cell lung", "value": 31.1, "unit": "µM"}, {"measurement": "TGI", "setting": "A549 NSCLC", "value": 42.9, "unit": "µM"}, {"measurement": "TGI", "setting": "SK-MEL-2 melanoma", "value": 32.9, "unit": "µM"}, {"measurement": "TGI", "setting": "SF-295 CNS", "value": 33.4, "unit": "µM"}, {"measurement": "TGI", "setting": "786-0 renal", "value": 28.7, "unit": "µM"}, {"measurement": "TGI", "setting": "U251 CNS", "value": 30.4, "unit": "µM"}, {"measurement": "TGI", "setting": "OVCAR-8 ovarian", "value": 34.9, "unit": "µM"}, {"measurement": "TGI", "setting": "HOP-92 NSCLC", "value": 54.1, "unit": "µM"}, {"measurement": "TGI", "setting": "LOX IMVI melanoma", "value": 30.8, "unit": "µM"}, {"measurement": "TGI", "setting": "HOP-18 NSCLC", "value": 66.5, "unit": "µM"}, {"measurement": "TGI", "setting": "SNB-78 CNS", "value": 56.2, "unit": "µM"}, {"measurement": "TGI", "setting": "COLO 205 colon", "value": 25.9, "unit": "µM"}, {"measurement": "TGI", "setting": "SNB-19 CNS", "value": 31.6, "unit": "µM"}, {"measurement": "TGI", "setting": "LXFL 529 NSCLC", "value": 30.4, "unit": "µM"}, {"measurement": "TGI", "setting": "KM12 colon", "value": 32.4, "unit": "µM"}, {"measurement": "TGI", "setting": "HOP-62 NSCLC", "value": 36, "unit": "µM"}, {"measurement": "TGI", "setting": "M14 melanoma", "value": 28.3, "unit": "µM"}, {"measurement": "TGI", "setting": "K-562 leukemia", "value": 41.8, "unit": "µM"}, {"measurement": "TGI", "setting": "NCI-H23 lung", "value": 81.3, "unit": "µM"}, {"measurement": "TGI", "setting": "DLD-1 colon", "value": 79.2, "unit": "µM"}, {"measurement": "TGI", "setting": "CAKI-1 renal", "value": 22.8, "unit": "µM"}, {"measurement": "TGI", "setting": "RXF 393 renal", "value": 22.7, "unit": "µM"}, {"measurement": "TGI", "setting": "SNB-75 CNS", "value": 55.2, "unit": "µM"}, {"measurement": "TGI", "setting": "NCI-H522 lung", "value": 31.2, "unit": "µM"}, {"measurement": "TGI", "setting": "SN12C renal", "value": 40.5, "unit": "µM"}, {"measurement": "TGI", "setting": "SF-268 CNS", "value": 40, "unit": "µM"}, {"measurement": "TGI", "setting": "RPMI-8226 leukemia", "value": 48.7, "unit": "µM"}, {"measurement": "TGI", "setting": "IGROV1 ovarian", "value": 33.2, "unit": "µM"}, {"measurement": "TGI", "setting": "A498 renal", "value": 34.8, "unit": "µM"}, {"measurement": "TGI", "setting": "MOLT-4 leukemia", "value": 51, "unit": "µM"}, {"measurement": "TGI", "setting": "UO-31 renal", "value": 28.2, "unit": "µM"}, {"measurement": "TGI", "setting": "SF-539 CNS", "value": 30.8, "unit": "µM"}]}
